Assay results taken from ChEMBL document CHEMBL4334474, “Friomaramide, a Highly Modified Linear Hexapeptide from an Antarctic Sponge, Inhibits Plasmodium falciparum Liver-Stage Development” (J Nat Prod, 2019).
Calls of active or inactive are those of the source. The calls are words filed in the database; no cut-off is given here. Non-standard residues stand in square brackets, D forms with d. Residues, ends and D or L forms follow the SMILES beside them. *: point of attachment. NMeI = CC[C@H](C)[C@H](NC)C(=O)O; dNMeF = CN[C@H](Cc1ccccc1)C(=O)O; X1 = C(=C/c1c[nH]c2ccccc12)/N*; NMeV = CN[C@H](C(=O)O)C(C)C; NMeA = CN[C@@H](C)C(=O)O

Assays:
Hepatocyte [1] = assay: Cytotoxicity against human primary hepatocytes at 6.1 uM; type: cell-based
Plasmodium falciparum [2] = assay: Antimalarial activity against Plasmodium falciparum liver stage form infected in human primary hepatocytes assessed as reduction in viability at 6.1 uM incubated for 3 days followed by compound wash and measured on day 6 relative to control; type: functional
Plasmodium falciparum [3] = assay: Antimalarial activity against Plasmodium falciparum liver stage form infected in human primary hepatocytes assessed as reduction in viability at 17.6 uM incubated for 3 days followed by compound wash and measured on day 6; type: functional, organism-based
Hepatocyte [4] = assay: Cytotoxicity against human primary hepatocytes at 17.6 uM; type: cell-based
Hepatocyte [5] = assay: Cytotoxicity against human primary hepatocytes at 19.3 uM; type: cell-based
Plasmodium falciparum [6] = assay: Antimalarial activity against Plasmodium falciparum liver stage form infected in human primary hepatocytes assessed as reduction in viability at 19.3 uM incubated for 3 days followed by compound wash and measured on day 6 relative to control; type: functional

For `CC[C@H](C)[C@@H](C(=O)N/C=C\c1c[nH]c2ccccc12)N(C)C(=O)[C@H]([C@@H](C)CC)N(C)C(=O)[C@H](C)N(C)C(=O)[C@H](C(C)C)N(C)C(=O)[C@@H](Cc1ccccc1)N(C)C(C)=O` (Ac-[dNMeF][NMeV][NMeA][NMeI][NMeI]-X1), the Activity (Hepatocyte [1]) was “Non-Toxic” and the inhibition at 6.1 µM (Plasmodium falciparum [2]) was 90 to 92%.

`C[C@H]1[C@@H](O)O[C@@H]2O[C@@]3(C)CC[C@H]4[C@H](C)CC[C@@H]1[C@@]24OO3` [ARTENIMOL] was tested, and the inhibition (Plasmodium falciparum [3]) was “inactive” and the Activity (Hepatocyte [4]) was “Non-Toxic”.

With `COc1cc(NC(C)CCCN)c2ncccc2c1` (stereo unspecified) [PRIMAQUINE] the Activity (Hepatocyte [5]) was “Non-Toxic” and the inhibition at 19.3 µM (Plasmodium falciparum [6]) was over 90%.
